From patent US12319674B2, “Isatin derivatives” (KING SAUD UNIVERSITY, priority 2020, dated 2025)

How the values were obtained:
Test in all cases: NCI-60 Human Tumor Cell Lines Screen, one-dose screen
Format in all cases: cell-based
[1] = tested on: Melanoma cells (MDA-MB-435); conditions: MDA-MB-435 cells, 10^-5 M, 2 days
Experimental: (§1) Anticancer activities of the exemplary isatin derivatives were tested by the NIH National Cancer Institutes (NCI), with results summarized in FIGS. 2A-3B. The anticancer activity was tested by NCI, division of cancer treatment and diagnosis, according to the NCI-60 Human Tumor Cell Lines Screen, one-dose screen (https://dtp.cancer.gov/discovery_development/nci-60/methodology.htm). This screening allows for qualified synthesized chemicals to be subjected to an anticancer test against 60 different cancer cell lines. Briefly, exemplary T1 or T2 was dissolved in DMSO:Glycerol, 9:1, at 4 mmol and kept frozen prior to use. For inoculation, a 96 well microtiter was used for the study of different cell lines. Based on the doubling time for each cell line, the well density varied. The plates were incubated at 37° ° C., 5% CO2, 95% air and 100% relative humidity for 1 day. The exemplary T1 or T2 or a control were added to the plates at a concentration of 10^−5 M. After 2 more days, the plates were fixed and stained to identify growth inhibition relative to cells without drug treatment. Anti-proliferative activity was determined based on careful analysis of historical DTP screening data. Cell death and net growth inhibition were determined based on a time zero control. A value of 100 indicates no growth inhibition. A value of 40 indicates 60% growth inhibition. A value of 0 indicates no net growth over the course of the experiment. A value of −40 indicates 40% lethality.

[2] = tested on: Renal Cancer cells (CAKI-1); conditions: CAKI-1 cells, 10^-5 M, 2 days
Experimental: as §1

[3] = tested on: Non-Small Cell Lung Cancer cells (EKVX); conditions: 10^-5 M, 2 days
Experimental: as §1

[4] = tested on: Breast Cancer cells (MDA-MB-468); conditions: MDA-MB-468 cells, 10^-5 M, 2 days
Experimental: as §1

Row | Structure (SMILES) | anticancer activity compared to control (reduction) [1] | anticancer activity compared to control (reduction) [2] | anticancer activity compared to control (reduction) [3] | anticancer activity compared to control (reduction) [4]
1 | O=C1Nc2ccccc2/C1=N\N=Cc1cccs1 [T1, 3-((E)-(thiophen-2-ylmethylene)hydrazono)indolin-2-one] | ~83% | ~48% | ~54% | 
2 | O=C1Nc2ccc(Cl)cc2/C1=N/N=C/c1ccsc1 [T2, 5-chloro-3-((E)-(thiophen-3-ylmethylene) hydrazono) indolin-2-one] |  |  |  | ~73%
